# Legend:
# Assay in all cases: SelectScreen kinase panel
# Format in all cases: biochemical
# [1] = target: T1, Tie2 (Homo sapiens, UniProt Q02763)
# T1 construct: purchased Invitrogen / ThermoFisher SelectScreen
# Procedure: (§1) The ability of NIK to catalyze the hydrolysis of adenosine-5′-triphosphate (ATP) was monitored using the Transcreener ADP (adenosine-5′-diphosphate) assay (Bell Brook Labs, Fitchburg, WI). Purified human NIK kinase domain (a.a. 340–694) (0.5 nM) or mouse NIK kinase domain (a.a. 329–675) (1 nM) derived from a baculovirus-infected insect cell expression system was incubated with test compounds for 0.5–2 h in 50 mM HEPES buffer (pH 7.2) containing 10 mM MgCl2, 2 mM dithiothreitol, 10 μM ATP, 0.01% Triton X-100, 0.1% gamma-globulins from bovine blood, 1% dimethylsulfoxide (DMSO), 7 μg/mL ADP antibody and 5 nM ADP-MR121 633 tracer. Reactions were quenched by the addition of 20 mM EDTA and 0.01% Brij 35. The tracer bound to the antibody was displaced by the ADP generated during the NIK reaction, which caused a decrease in fluorescence polarization that was measured by laser excitation at 633 nm with a Fluorescence Correlation Spectroscopy Plus reader (Evotec AG). Equilibrium dissociation constant (Ki) values for NIK inhibitors are calculated from plots of activity vs. inhibitor concentration using Morrison’s quadratic equation that accounts for the potential of tight binding, and by also applying the conversion factor that accounted for competitive inhibition and the concentration of substrate used in the assay relative to its Michaelis constant (Km). The Ki values with hPKD1 (PKCμ) were determined using the same assay conditions as for NIK. Ki measurements for hKHS1 and hLRRK2, as well as broad kinase selectivity profiling for SMI1, were carried out by Invitrogen using their SelectScreen kinase assay panel (ThermoFisher Scientific, Madison, WI). The vendor offered two types of kinase activity assays, a peptide phosphorylation assay (Z′-LYTE) and an ADP quantitation assay (Adapta), as well as one type of kinase ATP site competitive binding assay (LanthaScreen). See vendor web site for technology and protocol details for each specific kinase assay.
# (§2) The average % Inhibition of each kinase is reported (Supplementary Table 1).
# [2] = target: T2, PrKX (Homo sapiens, UniProt P51817)
# T2 construct: purchased Invitrogen / ThermoFisher SelectScreen
# Procedure: as §1, §2
# [3] = target: T3, PDK1 (Homo sapiens, UniProt O15530)
# T3 construct: purchased Invitrogen / ThermoFisher SelectScreen
# T3 sequence (O15530 whole entry): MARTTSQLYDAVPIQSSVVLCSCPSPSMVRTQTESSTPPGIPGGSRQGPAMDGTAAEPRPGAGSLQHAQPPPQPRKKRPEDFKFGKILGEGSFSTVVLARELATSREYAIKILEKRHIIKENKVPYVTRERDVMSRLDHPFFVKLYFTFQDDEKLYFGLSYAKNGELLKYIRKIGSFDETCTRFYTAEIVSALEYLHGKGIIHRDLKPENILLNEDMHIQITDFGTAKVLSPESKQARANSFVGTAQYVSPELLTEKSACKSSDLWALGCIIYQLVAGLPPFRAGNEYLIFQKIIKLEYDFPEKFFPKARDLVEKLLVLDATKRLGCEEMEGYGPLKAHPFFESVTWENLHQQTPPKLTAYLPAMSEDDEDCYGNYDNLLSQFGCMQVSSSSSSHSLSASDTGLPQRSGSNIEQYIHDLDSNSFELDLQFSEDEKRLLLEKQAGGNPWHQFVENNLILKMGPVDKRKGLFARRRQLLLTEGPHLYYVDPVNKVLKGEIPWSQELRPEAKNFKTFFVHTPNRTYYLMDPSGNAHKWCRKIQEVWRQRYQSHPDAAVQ
# Procedure: as §1, §2
# [4] = target: T4, TBK1 (Homo sapiens, UniProt Q9UHD2)
# T4 construct: purchased Invitrogen / ThermoFisher SelectScreen
# Procedure: as §1, §2
# [5] = target: T5, CDK1/cyclinB (Homo sapiens, UniProt P06493)
# T5 construct: purchased Invitrogen / ThermoFisher SelectScreen
# Procedure: as §1, §2
# [6] = target: T6, TrkA (Homo sapiens, UniProt P04629)
# T6 construct: purchased Invitrogen / ThermoFisher SelectScreen
# Procedure: as §1, §2
# [7] = target: T7, eEF-2K (Homo sapiens, UniProt O00418)
# T7 construct: purchased Invitrogen / ThermoFisher SelectScreen
# Procedure: as §1, §2
# [8] = target: T8, Lyn (Homo sapiens, UniProt P07948)
# T8 construct: purchased Invitrogen / ThermoFisher SelectScreen
# Procedure: as §1, §2
# [9] = target: T9, NEK4 (Homo sapiens, UniProt P51957)
# T9 construct: purchased Invitrogen / ThermoFisher SelectScreen
# Procedure: as §1, §2
# [10] = target: T10, MAPKAPK2 (Homo sapiens, UniProt P49137)
# T10 construct: purchased Invitrogen / ThermoFisher SelectScreen
# Procedure: as §1, §2
# [11] = target: T11, AKT2 (Homo sapiens, UniProt P31751)
# T11 construct: purchased Invitrogen / ThermoFisher SelectScreen
# T11 sequence (P31751 whole entry): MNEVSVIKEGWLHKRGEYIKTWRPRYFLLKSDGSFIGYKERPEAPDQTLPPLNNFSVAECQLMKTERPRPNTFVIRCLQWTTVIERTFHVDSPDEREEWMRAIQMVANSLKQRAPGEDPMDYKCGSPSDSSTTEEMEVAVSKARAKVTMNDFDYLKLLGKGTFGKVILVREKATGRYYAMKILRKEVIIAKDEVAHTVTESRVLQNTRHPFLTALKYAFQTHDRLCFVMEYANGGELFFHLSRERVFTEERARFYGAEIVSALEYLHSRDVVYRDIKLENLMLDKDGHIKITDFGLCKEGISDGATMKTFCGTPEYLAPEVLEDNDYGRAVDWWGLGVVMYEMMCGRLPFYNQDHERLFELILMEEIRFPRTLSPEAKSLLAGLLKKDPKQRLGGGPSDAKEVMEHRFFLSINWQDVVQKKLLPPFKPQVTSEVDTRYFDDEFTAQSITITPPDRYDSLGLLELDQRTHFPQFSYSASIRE
# Procedure: as §1, §2
# [12] = target: T12, RSK2 (Homo sapiens, UniProt P51812)
# T12 construct: purchased Invitrogen / ThermoFisher SelectScreen
# Procedure: as §1, §2
# [13] = target: T13, CK1_epsilon1 (Homo sapiens, UniProt P49674)
# T13 construct: purchased Invitrogen / ThermoFisher SelectScreen
# Procedure: as §1, §2
# [14] = target: T14, PKC_beta1 (Homo sapiens, UniProt P05771)
# T14 construct: purchased Invitrogen / ThermoFisher SelectScreen
# Procedure: as §1, §2
# [15] = target: T15, PI3K- A (Homo sapiens, UniProt P42336)
# T15 construct: purchased Invitrogen / ThermoFisher SelectScreen
# Procedure: as §1, §2
# [16] = target: T16, CLK1 (Homo sapiens, UniProt P49759)
# T16 construct: purchased Invitrogen / ThermoFisher SelectScreen
# Procedure: as §1, §2
# [17] = target: T17, PAK4 (Homo sapiens, UniProt O96013)
# T17 construct: purchased Invitrogen / ThermoFisher SelectScreen
# Procedure: as §1, §2
# [18] = target: T18, BTK (Homo sapiens, UniProt Q06187)
# T18 construct: purchased Invitrogen / ThermoFisher SelectScreen
# T18 sequence (Q06187 whole entry): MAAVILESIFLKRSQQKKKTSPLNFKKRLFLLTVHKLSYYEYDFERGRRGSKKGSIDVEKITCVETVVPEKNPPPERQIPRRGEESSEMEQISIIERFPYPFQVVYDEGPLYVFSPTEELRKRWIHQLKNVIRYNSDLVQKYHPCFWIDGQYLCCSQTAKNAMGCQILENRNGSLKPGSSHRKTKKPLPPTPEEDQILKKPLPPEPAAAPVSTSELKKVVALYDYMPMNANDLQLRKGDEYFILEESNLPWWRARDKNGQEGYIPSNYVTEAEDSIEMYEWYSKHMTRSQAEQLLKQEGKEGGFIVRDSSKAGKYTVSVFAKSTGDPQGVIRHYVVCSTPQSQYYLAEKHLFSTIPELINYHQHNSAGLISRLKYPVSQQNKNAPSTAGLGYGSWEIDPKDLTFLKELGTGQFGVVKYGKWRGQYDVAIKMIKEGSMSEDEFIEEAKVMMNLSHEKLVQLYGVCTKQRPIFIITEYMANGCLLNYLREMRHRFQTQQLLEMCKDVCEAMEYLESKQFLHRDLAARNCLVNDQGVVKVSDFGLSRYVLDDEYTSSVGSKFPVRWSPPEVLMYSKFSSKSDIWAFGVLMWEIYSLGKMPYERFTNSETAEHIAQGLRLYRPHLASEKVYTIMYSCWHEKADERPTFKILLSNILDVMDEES
# Procedure: as §1, §2
# [19] = target: T19, Axl (Homo sapiens, UniProt P30530)
# T19 construct: purchased Invitrogen / ThermoFisher SelectScreen
# Procedure: as §1, §2
# [20] = target: T20, HIPK2 (Homo sapiens, UniProt Q9H2X6)
# T20 construct: purchased Invitrogen / ThermoFisher SelectScreen
# T20 sequence (Q9H2X6 whole entry): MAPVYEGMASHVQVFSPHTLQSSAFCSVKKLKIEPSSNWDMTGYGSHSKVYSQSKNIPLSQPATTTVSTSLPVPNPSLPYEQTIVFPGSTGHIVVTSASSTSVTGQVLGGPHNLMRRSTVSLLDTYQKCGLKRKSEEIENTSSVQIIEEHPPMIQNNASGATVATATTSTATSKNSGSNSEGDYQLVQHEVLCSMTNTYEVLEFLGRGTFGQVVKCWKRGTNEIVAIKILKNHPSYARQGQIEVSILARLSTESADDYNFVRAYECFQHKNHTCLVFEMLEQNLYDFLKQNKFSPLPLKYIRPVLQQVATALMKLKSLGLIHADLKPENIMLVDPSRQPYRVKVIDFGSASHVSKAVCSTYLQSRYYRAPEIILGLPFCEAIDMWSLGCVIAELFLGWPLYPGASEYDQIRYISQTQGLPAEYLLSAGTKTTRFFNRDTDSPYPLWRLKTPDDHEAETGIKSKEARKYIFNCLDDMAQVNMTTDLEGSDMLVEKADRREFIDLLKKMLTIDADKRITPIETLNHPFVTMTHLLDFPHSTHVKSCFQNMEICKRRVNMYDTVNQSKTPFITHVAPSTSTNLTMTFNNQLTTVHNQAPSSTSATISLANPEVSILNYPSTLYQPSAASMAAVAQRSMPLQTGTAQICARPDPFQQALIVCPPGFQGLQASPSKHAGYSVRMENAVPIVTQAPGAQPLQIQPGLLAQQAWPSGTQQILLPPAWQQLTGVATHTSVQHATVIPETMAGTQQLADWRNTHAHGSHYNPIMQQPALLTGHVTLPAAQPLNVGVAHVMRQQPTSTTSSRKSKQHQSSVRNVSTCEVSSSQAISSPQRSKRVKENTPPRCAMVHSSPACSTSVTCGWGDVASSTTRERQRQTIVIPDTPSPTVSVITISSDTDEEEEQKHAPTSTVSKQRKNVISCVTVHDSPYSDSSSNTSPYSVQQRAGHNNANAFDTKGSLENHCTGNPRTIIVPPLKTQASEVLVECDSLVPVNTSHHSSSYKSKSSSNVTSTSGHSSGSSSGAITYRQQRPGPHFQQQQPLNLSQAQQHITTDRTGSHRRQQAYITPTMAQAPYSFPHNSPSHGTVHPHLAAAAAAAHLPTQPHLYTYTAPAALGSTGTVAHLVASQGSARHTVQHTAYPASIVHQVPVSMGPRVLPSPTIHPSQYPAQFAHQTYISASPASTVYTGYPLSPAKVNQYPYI
# Procedure: as §1, §2
# [21] = target: T21, PKC-epsilon (Homo sapiens, UniProt Q02156)
# T21 construct: purchased Invitrogen / ThermoFisher SelectScreen
# Procedure: as §1, §2
# [22] = target: T22, PKD1 (Homo sapiens, UniProt Q15139); settings: NIK SMI1 1 µM; ATP Km app
# T22 construct: purchased Invitrogen / ThermoFisher SelectScreen
# T22 sequence (Q15139 whole entry): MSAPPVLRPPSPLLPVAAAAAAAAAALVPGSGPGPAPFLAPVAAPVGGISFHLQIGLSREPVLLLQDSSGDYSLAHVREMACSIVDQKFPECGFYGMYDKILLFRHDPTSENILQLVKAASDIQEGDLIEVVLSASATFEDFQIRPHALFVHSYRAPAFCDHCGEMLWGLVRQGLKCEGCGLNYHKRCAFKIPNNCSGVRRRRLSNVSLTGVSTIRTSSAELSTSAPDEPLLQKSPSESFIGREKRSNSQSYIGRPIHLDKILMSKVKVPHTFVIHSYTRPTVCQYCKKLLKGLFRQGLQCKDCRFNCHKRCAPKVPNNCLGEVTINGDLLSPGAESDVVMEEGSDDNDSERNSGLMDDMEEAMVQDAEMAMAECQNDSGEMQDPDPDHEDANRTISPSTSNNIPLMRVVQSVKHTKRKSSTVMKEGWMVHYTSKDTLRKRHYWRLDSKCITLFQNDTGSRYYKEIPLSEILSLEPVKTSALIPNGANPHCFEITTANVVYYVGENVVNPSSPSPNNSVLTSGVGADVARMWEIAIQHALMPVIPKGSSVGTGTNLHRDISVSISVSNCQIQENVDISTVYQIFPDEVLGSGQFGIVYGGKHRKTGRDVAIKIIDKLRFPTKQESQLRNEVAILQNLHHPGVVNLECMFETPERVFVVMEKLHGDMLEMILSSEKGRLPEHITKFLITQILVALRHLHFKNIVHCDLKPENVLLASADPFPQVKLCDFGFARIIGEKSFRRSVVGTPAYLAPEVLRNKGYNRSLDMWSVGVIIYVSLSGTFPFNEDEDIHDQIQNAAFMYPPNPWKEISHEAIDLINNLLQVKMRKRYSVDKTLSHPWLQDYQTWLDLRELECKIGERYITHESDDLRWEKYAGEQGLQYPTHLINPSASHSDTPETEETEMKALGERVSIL
# Procedure: as §1, §2
# [23] = target: T23, PI3K- G (Homo sapiens, UniProt P48736)
# T23 construct: purchased Invitrogen / ThermoFisher SelectScreen
# Procedure: as §1, §2
# [24] = target: T24, ERK2 (Homo sapiens, UniProt P28482)
# T24 construct: purchased Invitrogen / ThermoFisher SelectScreen
# Procedure: as §1, §2
# [25] = target: T25, MELK (Homo sapiens, UniProt Q14680)
# T25 construct: purchased Invitrogen / ThermoFisher SelectScreen
# Procedure: as §1, §2
# [26] = target: T26, TYK2 (Homo sapiens, UniProt P29597)
# T26 construct: purchased Invitrogen / ThermoFisher SelectScreen
# Procedure: as §1, §2
# [27] = target: T27, PhK_gamm1 (Homo sapiens, UniProt Q16816)
# T27 construct: purchased Invitrogen / ThermoFisher SelectScreen
# Procedure: as §1, §2
# [28] = target: T28, MLK1 (Homo sapiens, UniProt P80192)
# T28 construct: purchased Invitrogen / ThermoFisher SelectScreen
# T28 sequence (P80192 whole entry): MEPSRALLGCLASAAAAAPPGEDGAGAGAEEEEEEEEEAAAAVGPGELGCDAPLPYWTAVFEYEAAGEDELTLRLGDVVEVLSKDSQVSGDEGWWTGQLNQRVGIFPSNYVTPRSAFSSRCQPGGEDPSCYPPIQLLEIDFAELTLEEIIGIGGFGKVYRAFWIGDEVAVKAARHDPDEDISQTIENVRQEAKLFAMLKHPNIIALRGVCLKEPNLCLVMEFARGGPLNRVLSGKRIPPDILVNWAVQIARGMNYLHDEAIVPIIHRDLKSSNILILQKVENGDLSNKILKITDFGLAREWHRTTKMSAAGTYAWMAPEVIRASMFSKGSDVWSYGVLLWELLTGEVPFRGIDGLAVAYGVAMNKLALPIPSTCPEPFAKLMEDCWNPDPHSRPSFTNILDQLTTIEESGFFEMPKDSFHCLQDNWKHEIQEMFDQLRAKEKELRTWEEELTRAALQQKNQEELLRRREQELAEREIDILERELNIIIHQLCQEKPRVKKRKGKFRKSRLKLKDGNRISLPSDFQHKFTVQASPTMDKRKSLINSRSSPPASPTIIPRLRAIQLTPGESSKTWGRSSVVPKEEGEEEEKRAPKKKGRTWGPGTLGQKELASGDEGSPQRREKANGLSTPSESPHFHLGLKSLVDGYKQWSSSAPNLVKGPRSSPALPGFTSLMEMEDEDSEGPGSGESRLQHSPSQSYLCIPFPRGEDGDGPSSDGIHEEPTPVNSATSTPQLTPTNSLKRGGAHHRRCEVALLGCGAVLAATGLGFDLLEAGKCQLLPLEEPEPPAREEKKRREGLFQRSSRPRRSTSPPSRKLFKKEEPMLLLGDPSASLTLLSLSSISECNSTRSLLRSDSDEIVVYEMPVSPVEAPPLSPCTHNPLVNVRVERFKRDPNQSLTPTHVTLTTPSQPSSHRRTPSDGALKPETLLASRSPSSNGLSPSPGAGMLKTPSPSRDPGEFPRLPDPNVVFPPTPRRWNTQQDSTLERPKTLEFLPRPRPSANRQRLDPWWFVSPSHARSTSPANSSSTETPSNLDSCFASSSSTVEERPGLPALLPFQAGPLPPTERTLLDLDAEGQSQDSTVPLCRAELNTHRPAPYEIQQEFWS
# Procedure: as §1, §2
# [29] = target: T29, EGFR (Homo sapiens, UniProt P00533)
# T29 construct: purchased Invitrogen / ThermoFisher SelectScreen
# Procedure: as §1, §2
# [30] = target: T30, Flt3 (Homo sapiens, UniProt P36888)
# T30 construct: purchased Invitrogen / ThermoFisher SelectScreen
# Procedure: as §1, §2
# [31] = target: T31, RSK1 (Homo sapiens, UniProt Q15418)
# T31 construct: purchased Invitrogen / ThermoFisher SelectScreen
# Procedure: as §1, §2
# [32] = target: T32, LTK (Homo sapiens, UniProt P29376)
# T32 construct: purchased Invitrogen / ThermoFisher SelectScreen
# Procedure: as §1, §2
smiles,measurement,setting,value
COc1cc(C(N)=O)nc(-c2cccc(C#C[C@]3(O)CCN(C)C3=O)c2)c1 [NIK SMI1],inhibition at 1 µM,[1],6%
same,inhibition at 1 µM,[2],11%
same,inhibition at 1 µM,[3],-0.5%
same,inhibition at 1 µM,[4],26.5%
same,inhibition at 1 µM,[5],8.5%
same,inhibition at 1 µM,[6],2.5%
same,inhibition at 1 µM,[7],4%
same,inhibition at 1 µM,[8],2.5%
same,inhibition at 1 µM,[9],11%
same,inhibition at 1 µM,[10],-5%
same,inhibition at 1 µM,[11],13%
same,inhibition at 1 µM,[12],7%
same,inhibition at 1 µM,[13],6.5%
same,inhibition at 1 µM,[14],1.5%
same,inhibition at 1 µM,[15],-7.5%
same,inhibition at 1 µM,[16],4.5%
same,inhibition at 1 µM,[17],64%
same,inhibition at 1 µM,[18],-3%
same,inhibition at 1 µM,[19],9.3%
same,inhibition at 1 µM,[20],17.5%
same,inhibition at 1 µM,[21],2%
same,% Inhibition,[22],79%
same,inhibition at 1 µM,[22],> 75%
same,inhibition at 1 µM,[23],-2.9%
same,inhibition at 1 µM,[24],5.5%
same,inhibition at 1 µM,[25],26.5%
same,inhibition at 1 µM,[26],2%
same,inhibition at 1 µM,[27],6.5%
same,inhibition at 1 µM,[28],-1%
same,inhibition at 1 µM,[29],-11.5%
same,inhibition at 1 µM,[30],13.5%
same,inhibition at 1 µM,[31],4.5%
same,inhibition at 1 µM,[32],-1%

# Source: paper PMC5766581, “NF-κB inducing kinase is a therapeutic target for systemic lupus erythematosus” (Nature Communications, 2018)
